Data from US8791163B2 (McGill University, priority 2006, dated 2014).
“And” between values parts separate entries of the source, which are not always exact repeats. Identical values can stand only once.

Experiments:
[1] = system: dorsal raphe 5-HT neurons; test: In vivo electrophysiological recording of 5-HT firing activity; parameters: species or system rat
Excerpt: Serotonin (5-HT) neurons are implicated in the regulation of mood (for a review see Gobbi G, (2005) Inter. Rev. Neurobiology 65: 249-271). The increase in serotonergic neurotransmission is linked to the action of antidepressant drugs. For example fluoxetine (Prozac) increases the 5-HT availability by blocking its […]; mirtazapine (Remeron) increases 5-HT firing activity via an indirect alpha-2 receptor blockade. Consequently, in order to test if compound 5b increases the 5-HT firing activity, in vivo 5-HT neuron activity was recorded after single (40 or 80 mg/kg, subcutaneous) and repeated injections with compound 5b (40 mg/kg, i.p. once a day, for 4 days). For animals treated with a single injection (acute) the recording was done immediately following the injection. For animals treated with repeated injection (sub-chronic) the recording was done 24 hours after the last injection (FIG. 6).
Rats (Sprague-Dawley) were anesthetized with chloral hydrate (400 mg/kg i.p.) and placed in a stereotaxic frame (David Kopf Instruments) with the skull positioned horizontally. To maintain a full anesthetic state in which there is no reaction to a tail or paw pinch, chloral hydrate supplements of 100 mg/kg were given as needed. A burr hole was drilled in the midline, 0.9 to 1.2 mm anterior to interaural zero (Paxinos, G. and Watson, C. (1982); The rat brain in Stereotaxic Coordinates; Academy, Sydney). Dorsal raphe was encountered just below the Sylvius aqueduct, 5.0 to 6.5 mm ventral to dura mater. The dorsal raphe 5-HT neurons, in physiological conditions, were identified according to the following criteria: a slow (0.5-2.5 Hz) and regular firing rate; and a long-duration (0.8-1.2 ms) positive action potential (Baraban and Aghajanian (1980) Neuropharmacology 19, 355-363). Neuronal activity was recorded and processed by a computer connected to CED1401 interface-Spike 2 software (Cambridge Electronic Design, Cambridge, UK).

[2] = target: T1, cloned human MT2 receptors (Homo sapiens, UniProt P49286); test: [35S]GTPγS binding assay, NIH3T3 cells expressing human MT2; format: biochemical; details: maximal net effect relative to MLT
T1 construct: expressed in transfected cells
T1 sequence (P49286 1-362): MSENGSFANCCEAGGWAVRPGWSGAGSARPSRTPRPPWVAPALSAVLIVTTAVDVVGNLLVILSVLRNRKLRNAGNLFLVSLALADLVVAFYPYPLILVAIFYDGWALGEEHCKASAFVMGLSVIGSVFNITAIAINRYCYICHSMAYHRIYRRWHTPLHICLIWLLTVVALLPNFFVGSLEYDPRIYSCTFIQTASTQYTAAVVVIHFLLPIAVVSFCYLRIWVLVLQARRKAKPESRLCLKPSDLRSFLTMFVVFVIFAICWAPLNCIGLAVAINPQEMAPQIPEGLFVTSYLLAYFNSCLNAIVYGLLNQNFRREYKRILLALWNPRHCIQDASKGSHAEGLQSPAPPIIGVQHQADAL

[3] = system: Adult Sprague Dawley rats; test: Elevated plus maze (EPM); format: in vivo, rat; details: for Head Dips / Percentage of time in Closed Arms / Percentage of time in Open Arms / Total time duration in the Closed Arms / Total time duration in the Open Arms: injected 60 min before test
Protocol: The maze is comprised of two open arms (50×10 cm) and two closed arms (50×10×40 cm) that extend from a common central platform (10×10 cm). The apparatus, made of wood (painted black) was elevated to a height of 80 cm above floor level. The closed arms are located opposite one another. Behavior is recorded over a period of 5 min using a video camera positioned directly above the maze and rated by an observer blind to drug conditions. The major measure of interest is the amount of time spent in the open arms. As an index of general activity and distribution, the total number of entries into both open and closed arms was also recorded. […] In order to increase the sensitivity of this test to anxiolytic activity, tests are carried out under normal room illumination (25 W bulb).

[4] = target: T2, cloned human MT1 receptors (Homo sapiens, UniProt P48039); test: [35S]GTPγS binding assay, NIH3T3 cells expressing human MT1; format: biochemical
T2 construct: expressed in transfected cells

[5] = 5b 40, 60 and 80 mg/kg, injected 60 min before the test, vs vehicle

T2 sequence (P48039 whole entry): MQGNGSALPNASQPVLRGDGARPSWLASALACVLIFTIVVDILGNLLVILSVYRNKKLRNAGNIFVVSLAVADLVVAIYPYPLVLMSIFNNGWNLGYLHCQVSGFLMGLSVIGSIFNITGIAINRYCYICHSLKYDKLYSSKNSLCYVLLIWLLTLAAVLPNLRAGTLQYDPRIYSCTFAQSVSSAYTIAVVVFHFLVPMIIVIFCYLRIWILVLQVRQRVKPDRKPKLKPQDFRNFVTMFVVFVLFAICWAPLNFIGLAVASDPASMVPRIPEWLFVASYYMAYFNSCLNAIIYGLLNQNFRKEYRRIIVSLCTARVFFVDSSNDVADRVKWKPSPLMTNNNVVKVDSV

`COc1cccc(N(CCNC(C)=O)c2ccccc2)c1` [5b, N-{2-[(3-Methoxyphenyl)-phenylamino]ethyl}acetamide] was tested, and the “increase of spontaneous activity of 5-HT neurons” value (from here on “increase”) ([1]; acute single injection 40 mg/kg subcutaneous) was 40%, the “5-HT neuron firing rate” value ([1]; acute single injection 40 mg/kg subcutaneous (control 0.66 Hz)) was 0.93 Hz and the “increase” value ([1]; acute single injection 80 mg/kg subcutaneous) was 106%. The “5-HT neuron firing rate” value ([1]; acute single injection 80 mg/kg subcutaneous (control 0.66 Hz)) was 1.36 Hz, the “increase” value ([1]; sub-chronic 40 mg/kg i.p. once a day for 4 days, recorded 24 h after last injection) was 133% and the “5-HT neuron mean firing rate” value ([1]; sub-chronic 40 mg/kg once a day for 4 days, recorded 24 h after last injection (control 1.2 Hz)) was 2.8 Hz and 2.80 Hz. The “MT2 IAr ± SEM (relative intrinsic activity)” value [2] was 0.6 and 0.61 ± 0.04, the “Head Dips” value ([3]; 5b 40 mg/kg) was 6.30 ± 0.98 and the “Percentage of time in Closed Arms” value ([3]; 5b 40 mg/kg) was 82.30 ± 2.63%. For the same compound, the “Percentage of time in Open Arms” value ([3]; 5b 40 mg/kg) was 17.7 ± 2.6%, the “Total time duration in the Closed Arms” value ([3]; 5b 40 mg/kg) was 219.4 ± 9.38 sec/closed arm and the “Total time duration in the Open Arms” value ([3]; 5b 40 mg/kg) was 47.4 ± 6.86 sec/open arm. The “Head Dips” value ([3]; 5b 60 mg/kg) was 8.27 ± 1.42, the “Percentage of time in Closed Arms” value ([3]; 5b 60 mg/kg) was 74.47 ± 4.06 (P = 0.02) % and the “Percentage of time in Open Arms” value ([3]; 5b 60 mg/kg) was 25.5 ± 4.1 (P = 0.02) %. The “Total time duration in the Closed Arms” value ([3]; 5b 60 mg/kg) was 199.83 ± 11.33 (P = 0.01) sec/closed arm, the “Total time duration in the Open Arms” value ([3]; 5b 60 mg/kg) was 68.93 ± 11.02 (P = 0.02) sec/open arm and the “Head Dips” value ([3]; 5b 80 mg/kg) was 9.91 ± 1.50 (P = 0.02). The “Percentage of time in Closed Arms” value ([3]; 5b 80 mg/kg) was 68.18 ± 4.84 (P = 0.007) %, the “Percentage of time in Open Arms” value ([3]; 5b 80 mg/kg) was 31.8 ± 4.8 (P = 0.003) % and the “Total time duration in the Closed Arms” value ([3]; 5b 80 mg/kg) was 181.68 ± 14.32 (P = 0.006) sec/closed arm. For the same compound, the “Total time duration in the Open Arms” value ([3]; 5b 80 mg/kg) was 79.16 ± 12.0 (P = 0.001) sec/open arm, the “number of head dips (FIG. 4)” value ([3]; 5b 40, 60 and 80 mg/kg, injected 60 min before the test) was “increase in the number of head dips” and the “time in the open arms, percentage of time (FIG. 3)” value [3, 5] was “spent more time in the open arms”. The “time in the open arms, total time expressed in seconds (FIG. 2)” value [3, 5] was “spent more time in the open arms”, the “functional behaviour (maximal stimulation of basal [35S]GTPγS binding lower than melatonin)” value ([4]; MT1 and MT2) was “partial agonist” and the “MT1 IAr ± SEM (relative intrinsic activity)” value ([4]; maximal net effect relative to MLT) was 0.8 and 0.79 ± 0.03.
